{"source": "ChEMBL document CHEMBL3400099", "about": "“Novel thiazole-thiophene conjugates as adenosine receptor antagonists: synthesis, biological evaluation and docking studies” (Bioorg Med Chem Lett, 2015)", "key": {"[1]": {"target": "T1, Adenosine receptor A3 (Homo sapiens, UniProt P0DMS8)", "T1 sequence (P0DMS8 whole entry)": "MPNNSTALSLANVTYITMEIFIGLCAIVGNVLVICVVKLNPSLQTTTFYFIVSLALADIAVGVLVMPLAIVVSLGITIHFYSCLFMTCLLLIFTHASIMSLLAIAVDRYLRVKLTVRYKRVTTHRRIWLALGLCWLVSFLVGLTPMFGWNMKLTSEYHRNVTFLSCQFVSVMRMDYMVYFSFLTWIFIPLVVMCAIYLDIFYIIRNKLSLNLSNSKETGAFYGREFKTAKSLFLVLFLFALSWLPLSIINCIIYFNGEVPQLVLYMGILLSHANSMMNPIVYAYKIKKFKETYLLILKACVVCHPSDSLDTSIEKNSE", "test": "Displacement of [3H]HEMADO from human adenosine A3 receptor expressed in CHO cells", "format": "cell-based"}, "[2]": {"target": "Adenosine receptors; A1 & A3 (Homo sapiens) (UniProt P30542+P0DMS8)", "test": "Selectivity ratio of Ki for human adenosine A1 receptor to Ki for human adenosine A3 receptor"}, "[3]": {"target": "Adenosine receptor A2a (Homo sapiens, UniProt P29274)", "sequence (P29274 whole entry)": "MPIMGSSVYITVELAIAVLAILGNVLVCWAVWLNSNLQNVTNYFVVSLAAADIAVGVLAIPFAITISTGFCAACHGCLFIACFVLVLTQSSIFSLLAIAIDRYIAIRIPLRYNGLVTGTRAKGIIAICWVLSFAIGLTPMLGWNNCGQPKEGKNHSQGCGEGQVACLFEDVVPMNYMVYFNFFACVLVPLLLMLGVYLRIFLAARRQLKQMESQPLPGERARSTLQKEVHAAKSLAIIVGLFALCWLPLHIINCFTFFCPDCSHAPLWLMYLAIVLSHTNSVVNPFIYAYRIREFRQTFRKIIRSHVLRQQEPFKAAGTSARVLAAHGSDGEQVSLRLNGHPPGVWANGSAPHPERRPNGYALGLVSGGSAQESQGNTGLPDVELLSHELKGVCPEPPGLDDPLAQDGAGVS", "test": "Displacement of [3H]NECA from human adenosine A2A receptor expressed in CHO cells", "format": "cell-based"}, "[4]": {"target": "T2, Adenosine receptor A1 (Homo sapiens, UniProt P30542)", "T2 sequence (P30542 whole entry)": "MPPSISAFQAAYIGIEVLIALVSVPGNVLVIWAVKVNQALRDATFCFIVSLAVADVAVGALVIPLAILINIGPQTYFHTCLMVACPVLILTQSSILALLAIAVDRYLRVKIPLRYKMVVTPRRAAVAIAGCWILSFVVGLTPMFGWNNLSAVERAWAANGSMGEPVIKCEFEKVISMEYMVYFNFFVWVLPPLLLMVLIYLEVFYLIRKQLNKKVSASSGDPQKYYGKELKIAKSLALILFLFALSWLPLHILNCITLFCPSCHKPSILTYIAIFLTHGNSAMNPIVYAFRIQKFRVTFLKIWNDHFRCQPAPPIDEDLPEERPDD", "test": "Displacement of [3H]CCPA from human adenosine A1 receptor expressed in CHO cells", "format": "cell-based"}, "[5]": {"organism": "Homo sapiens", "test": "Selectivity ratio of Ki for human adenosine A2A receptor to Ki for human adenosine A3 receptor"}}}
{"smiles": "CCOC(=O)c1c(NC(=O)c2sc(Nc3ccc(C)cc3)nc2-c2ccc(C)cc2)sc2c1CCCC2", "values": [{"measurement": "Ki", "setting": "[1]", "result": 2.16, "unit": "µM"}, {"measurement": "Selectivity ratio", "setting": "[2]", "result": "> 14"}, {"measurement": "Ki", "setting": "[3]", "result": "> 30", "unit": "µM"}, {"measurement": "Ki", "setting": "[4]", "result": "> 30", "unit": "µM"}, {"measurement": "Selectivity ratio", "setting": "[5]", "result": "> 14"}]}
{"smiles": "CCOC(=O)c1c(NC(=O)c2sc(Nc3ccc(C)cc3)nc2N(C)C)sc2c1CCCC2", "values": [{"measurement": "Ki", "setting": "[1]", "result": 4.71, "unit": "µM"}, {"measurement": "Selectivity ratio", "setting": "[2]", "result": 5}, {"measurement": "Ki", "setting": "[3]", "result": 18, "unit": "µM"}, {"measurement": "Ki", "setting": "[4]", "result": 23.5, "unit": "µM"}, {"measurement": "Selectivity ratio", "setting": "[5]", "result": 3.8}]}
{"smiles": "CCOC(=O)c1c(NC(=O)c2sc(Nc3ccc(C)cc3)nc2C)sc2c1CCCC2", "values": [{"measurement": "Ki", "setting": "[1]", "result": 8.22, "unit": "µM"}, {"measurement": "Selectivity ratio", "setting": "[2]", "result": "> 3.7"}, {"measurement": "Ki", "setting": "[3]", "result": "> 30", "unit": "µM"}, {"measurement": "Ki", "setting": "[4]", "result": "> 30", "unit": "µM"}, {"measurement": "Selectivity ratio", "setting": "[5]", "result": "> 3.7"}]}
{"smiles": "Cc1ccc(Nc2nc(-c3ccc(C)cc3)c(C(=O)Nc3sc4c(c3C#N)CCCC4)s2)cc1", "values": [{"measurement": "Ki", "setting": "[1]", "result": "> 10", "unit": "µM"}, {"measurement": "Ki", "setting": "[3]", "result": "> 10", "unit": "µM"}, {"measurement": "Ki", "setting": "[4]", "result": "> 10", "unit": "µM"}]}
{"smiles": "CN(C)c1nc(Nc2ccccc2)sc1C(=O)Nc1sc2c(c1C#N)CCCC2", "values": [{"measurement": "Ki", "setting": "[1]", "result": 35.6, "unit": "µM"}, {"measurement": "Selectivity ratio", "setting": "[2]", "result": "> 0.84"}, {"measurement": "Ki", "setting": "[3]", "result": "> 30", "unit": "µM"}, {"measurement": "Ki", "setting": "[4]", "result": "> 30", "unit": "µM"}, {"measurement": "Selectivity ratio", "setting": "[5]", "result": "> 0.84"}]}
{"smiles": "Cc1ccc(Nc2nc(N(C)C)c(C(=O)Nc3sc4c(c3C(N)=O)CCCC4)s2)cc1", "values": [{"measurement": "Ki", "setting": "[1]", "result": 7.13, "unit": "µM"}, {"measurement": "Selectivity ratio", "setting": "[2]", "result": 4.5}, {"measurement": "Ki", "setting": "[3]", "result": 22.3, "unit": "µM"}, {"measurement": "Ki", "setting": "[4]", "result": 32.4, "unit": "µM"}, {"measurement": "Selectivity ratio", "setting": "[5]", "result": 3.1}]}
{"smiles": "CCOC(=O)c1c(NC(=O)c2sc(Nc3ccc(C)cc3)nc2N(C)C)sc(C(=O)OC)c1C", "values": [{"measurement": "Ki", "setting": "[1]", "result": 3.91, "unit": "µM"}, {"measurement": "Selectivity ratio", "setting": "[2]", "result": 4.9}, {"measurement": "Ki", "setting": "[3]", "result": 26.6, "unit": "µM"}, {"measurement": "Ki", "setting": "[4]", "result": 19, "unit": "µM"}, {"measurement": "Selectivity ratio", "setting": "[5]", "result": 6.8}]}
{"smiles": "CCOC(=O)c1c(NC(=O)c2sc(Nc3ccccc3)nc2-c2ccc(C)cc2)sc2c1CCCC2", "values": [{"measurement": "Ki", "setting": "[1]", "result": 4.09, "unit": "µM"}, {"measurement": "Selectivity ratio", "setting": "[2]", "result": 1.9}, {"measurement": "Ki", "setting": "[3]", "result": 28.4, "unit": "µM"}, {"measurement": "Ki", "setting": "[4]", "result": 7.75, "unit": "µM"}, {"measurement": "Selectivity ratio", "setting": "[5]", "result": 6.9}]}
{"smiles": "CCOC(=O)c1c(NC(=O)c2sc(Nc3ccc(OC)cc3)nc2N(C)C)sc(C(=O)OC)c1C", "values": [{"measurement": "Ki", "setting": "[1]", "result": 2.73, "unit": "µM"}, {"measurement": "Selectivity ratio", "setting": "[2]", "result": 5.1}, {"measurement": "Ki", "setting": "[3]", "result": 9.66, "unit": "µM"}, {"measurement": "Ki", "setting": "[4]", "result": 14, "unit": "µM"}, {"measurement": "Selectivity ratio", "setting": "[5]", "result": 3.5}]}
{"smiles": "Cc1ccc(Nc2nc(N(C)C)c(C(=O)Nc3sc4c(c3C#N)CCCC4)s2)cc1", "values": [{"measurement": "Ki", "setting": "[1]", "result": 34, "unit": "µM"}, {"measurement": "Selectivity ratio", "setting": "[2]", "result": "> 2.9"}, {"measurement": "Ki", "setting": "[3]", "result": "> 10", "unit": "µM"}, {"measurement": "Ki", "setting": "[4]", "result": "> 100", "unit": "µM"}, {"measurement": "Selectivity ratio", "setting": "[5]", "result": "> 0.29"}]}
{"smiles": "CCOC(=O)c1c(NC(=O)c2sc(NC(=O)OC)nc2N(C)C)sc2c1CCCC2", "values": [{"measurement": "Ki", "setting": "[1]", "result": "> 30", "unit": "µM"}, {"measurement": "Selectivity ratio", "setting": "[2]", "result": "> 3.3"}, {"measurement": "Ki", "setting": "[3]", "result": "> 100", "unit": "µM"}, {"measurement": "Ki", "setting": "[4]", "result": "> 100", "unit": "µM"}, {"measurement": "Selectivity ratio", "setting": "[5]", "result": "> 3.3"}]}
{"smiles": "CCOC(=O)c1c(NC(=O)c2sc(Nc3ccc(OC)cc3)nc2-c2ccc(C)cc2)sc2c1CCCC2", "values": [{"measurement": "Ki", "setting": "[1]", "result": 0.52, "unit": "µM"}, {"measurement": "Selectivity ratio", "setting": "[2]", "result": "> 19"}, {"measurement": "Ki", "setting": "[3]", "result": "> 10", "unit": "µM"}, {"measurement": "Ki", "setting": "[4]", "result": "> 10", "unit": "µM"}, {"measurement": "Selectivity ratio", "setting": "[5]", "result": "> 19"}]}
{"smiles": "CCOC(=O)c1c(NC(=O)c2sc(Nc3ccccc3)nc2N(C)C)sc2c1CCCC2", "values": [{"measurement": "Ki", "setting": "[1]", "result": 4.12, "unit": "µM"}, {"measurement": "Selectivity ratio", "setting": "[2]", "result": 9.9}, {"measurement": "Ki", "setting": "[3]", "result": 6.45, "unit": "µM"}, {"measurement": "Ki", "setting": "[4]", "result": 40.8, "unit": "µM"}, {"measurement": "Selectivity ratio", "setting": "[5]", "result": 1.6}]}
{"smiles": "Cc1ccc(Nc2nc(C)c(C(=O)Nc3sc4c(c3C#N)CCCC4)s2)cc1", "values": [{"measurement": "Ki", "setting": "[1]", "result": 3.87, "unit": "µM"}, {"measurement": "Selectivity ratio", "setting": "[2]", "result": "> 7.8"}, {"measurement": "Ki", "setting": "[3]", "result": 5.67, "unit": "µM"}, {"measurement": "Ki", "setting": "[4]", "result": "> 30", "unit": "µM"}, {"measurement": "Selectivity ratio", "setting": "[5]", "result": 1.5}]}
{"smiles": "CCOC(=O)c1c(NC(=O)c2sc(Nc3ccc(C)cc3)nc2C)sc(C(=O)OC)c1C", "values": [{"measurement": "Ki", "setting": "[1]", "result": "> 30", "unit": "µM"}, {"measurement": "Ki", "setting": "[3]", "result": "> 30", "unit": "µM"}, {"measurement": "Ki", "setting": "[4]", "result": "> 30", "unit": "µM"}, {"measurement": "Selectivity ratio", "setting": "[5]", "result": 0.33}]}
{"smiles": "Cc1ccc(-c2nc(Nc3ccccc3)sc2C(=O)Nc2sc3c(c2C(N)=O)CCCC3)cc1", "values": [{"measurement": "Ki", "setting": "[1]", "result": 0.334, "unit": "µM"}, {"measurement": "Selectivity ratio", "setting": "[2]", "result": 7.1}, {"measurement": "Ki", "setting": "[3]", "result": 3.44, "unit": "µM"}, {"measurement": "Ki", "setting": "[4]", "result": 2.38, "unit": "µM"}, {"measurement": "Selectivity ratio", "setting": "[5]", "result": 10}]}
{"smiles": "Cc1ccc(Nc2nc(-c3ccc(C)cc3)c(C(=O)Nc3sc4c(c3C(N)=O)CCCC4)s2)cc1", "values": [{"measurement": "Ki", "setting": "[1]", "result": 0.33, "unit": "µM"}, {"measurement": "Selectivity ratio", "setting": "[2]", "result": "> 90"}, {"measurement": "Ki", "setting": "[3]", "result": "> 10", "unit": "µM"}, {"measurement": "Ki", "setting": "[4]", "result": "> 30", "unit": "µM"}, {"measurement": "Selectivity ratio", "setting": "[5]", "result": "> 30"}]}
{"smiles": "COc1ccc(Nc2nc(-c3ccc(C)cc3)c(C(=O)Nc3sc4c(c3C#N)CCCC4)s2)cc1", "values": [{"measurement": "Ki", "setting": "[1]", "result": 9.56, "unit": "µM"}, {"measurement": "Selectivity ratio", "setting": "[2]", "result": "> 3.1"}, {"measurement": "Ki", "setting": "[3]", "result": "> 30", "unit": "µM"}, {"measurement": "Ki", "setting": "[4]", "result": "> 30", "unit": "µM"}, {"measurement": "Selectivity ratio", "setting": "[5]", "result": "> 3.1"}]}
